Each molecule was assayed on HCV replicon cells (assay: Cell-based HCV replicon assay (replicon RNA by Taqman real time PCR)). Settings: HCV replicon 1b, cells harvested on day 3; read-out: 1b EC50.
With `C[C@@]1(N=[N+]=[N-])[C@@H]2OP(=O)(OC3CCCC3)OC[C@H]2O[C@H]1n1ccc(=O)[nH]c1=O` (stereo partly shown) [Compound 88] the EC50 was 0.4 µM.
With `CC(C)OP1(=O)OC[C@H]2O[C@@H](n3ccc(=O)[nH]c3=O)[C@](C)(N=[N+]=[N-])[C@@H]2O1` (single isomer, unassigned) [Compound 563] the EC50 was greater than 100 µM.
Molecule `COC(=O)[C@H](C)NP1(=O)OC[C@H]2O[C@@H](n3ccc(N)nc3=O)[C@](C)(N=[N+]=[N-])[C@@H]2O1` (single isomer, unassigned) [Compound 530] has an EC50 of 67 µM.

Same assay, conditions: Hepatitis C virus, 72 h, HCV replicon 1b, cells harvested on day 3; read-out: 1b EC50
With `COc1nc(N)nc2c1ncn2[C@@H]1O[C@@H]2COP(=O)(OC3CCCC3)O[C@H]2[C@@]1(C)N=[N+]=[N-]` (stereo partly shown) [Compound 105] the EC50 was 17.1 µM.
`CC(=O)Nc1ccn([C@@H]2O[C@H](CO)[C@@H](O)[C@@]2(C)N=[N+]=[N-])c(=O)n1` [Compound 2] was tested, and the EC50 was 75 µM.
With `CCOc1nc(N)nc2c1ncn2[C@@H]1O[C@@H]2COP(=O)(NC3CCCCC3)O[C@H]2[C@@]1(C)N=[N+]=[N-]` (stereo partly shown) [Compound 572] the EC50 was 100 µM.
`COc1nc(N)nc2c1ncn2[C@@H]1O[C@H](CO)[C@@H](O)[C@@]1(C)N=[N+]=[N-]` [Compound 51] gave an EC50 greater than 100 µM.
`COc1nc(N)nc2c1ncn2[C@@H]1O[C@@H]2COP(=O)(OC3CCC3)O[C@H]2[C@@]1(C)N=[N+]=[N-]` (single isomer, unassigned) [Compound 102] was tested, and the EC50 was 11 µM.

Same assay, conditions: Hepatitis C virus, 72 h, read-out: 1b EC50
For `C[C@H](NP(=O)(OC[C@H]1O[C@@H](n2ccc(N)nc2=O)[C@](C)(N=[N+]=[N-])[C@@H]1O)Oc1ccc(F)cc1)C(=O)OC1CCCCC1` (stereo partly shown) [Compound 197], the EC50 was 0.4 µM.
Molecule `CCOC(=O)[C@H](C)NP(=O)(OC[C@H]1O[C@@H](n2cnc3c(OC)nc(N)nc32)[C@](C)(N=[N+]=[N-])[C@@H]1O)Oc1ccc(F)cc1` (stereo partly shown) [Compound 247] has an EC50 of 0.7 µM.
With `COc1nc(N)nc2c1ncn2[C@@H]1O[C@H](COP(=O)(N[C@@H](C)C(=O)OC(C)C)Oc2ccccc2Cl)[C@@H](O)[C@@]1(C)N=[N+]=[N-]` (stereo partly shown) [Compound 240] the EC50 was 5.8 µM.
Molecule `COc1nc(N)nc2c1ncn2[C@@H]1O[C@H](COP(=O)(N[C@@H](C)C(=O)OC(C)C)Oc2ccc(F)cc2)[C@@H](O)[C@@]1(C)N=[N+]=[N-]` (stereo partly shown) [Compound 243] has an EC50 of 1.4 µM.
`CCOc1nc(N)nc2c1ncn2[C@@H]1O[C@H](COP(=O)(N[C@@H](C)C(=O)OCC(C)(C)C)Oc2ccccc2Cl)[C@@H](O)[C@@]1(C)N=[N+]=[N-]` (stereo partly shown) [Compound 357] showed an EC50 of 100 µM.
`CC(C)OC(=O)[C@H](C)NP(=O)(OC[C@H]1O[C@@H](n2ccc(N)nc2=O)[C@](C)(N=[N+]=[N-])[C@@H]1O)Oc1ccccc1` (stereo partly shown) [Compound 22] was tested, and the EC50 was 3.1 µM.
`COC(=O)[C@H](C)NP(=O)(OC[C@H]1O[C@@H](n2ccc(N)nc2=O)[C@](C)(N=[N+]=[N-])[C@@H]1O)Oc1ccccc1Cl` (single isomer, unassigned) [Compound 330] was tested, and the EC50 was 12 µM.
`COc1nc(N)nc2c1ncn2[C@@H]1O[C@H](COP(=O)(N[C@@H](C)C(=O)OCC(C)C)Oc2ccc(Cl)cc2)[C@@H](O)[C@@]1(C)N=[N+]=[N-]` (stereo partly shown) [Compound 285] showed an EC50 of 1.1 µM.
`CCCOC(=O)[C@H](C)NP(=O)(OC[C@H]1O[C@@H](n2cnc3c(OCC)nc(N)nc32)[C@](C)(N=[N+]=[N-])[C@@H]1O)Oc1ccccc1` (stereo partly shown) [Compound 29] showed an EC50 of 0.5 µM.
For `COC(=O)[C@H](C)NP(=O)(OC[C@H]1O[C@@H](n2ccc(=O)[nH]c2=O)[C@](C)(N=[N+]=[N-])[C@@H]1O)Oc1ccccc1Cl` (stereo partly shown) [Compound 40], the EC50 was 4 µM.
With `CCCC(CCC)COC(=O)[C@H](C)NP(=O)(OC[C@H]1O[C@@H](n2ccc(N)nc2=O)[C@](C)(N=[N+]=[N-])[C@@H]1O)Oc1ccccc1` (stereo partly shown) [Compound 317] the EC50 was 39 µM.
`C[C@H](NP(=O)(OC[C@H]1O[C@@H](n2ccc(=O)[nH]c2=O)[C@](C)(N=[N+]=[N-])[C@@H]1O)Oc1ccc(Cl)cc1)C(=O)OCc1ccccc1` (stereo partly shown) [Compound 304] gave an EC50 of 60 µM.
`COC(=O)[C@H](C)NP(=O)(OC[C@H]1O[C@@H](n2ccc(=O)[nH]c2=O)[C@](C)(N=[N+]=[N-])[C@@H]1O)Oc1ccc(Cl)c(Cl)c1` (stereo partly shown) [Compound 229] gave an EC50 of 0.03 µM.
`CCCOC(=O)[C@H](C)NP(=O)(OC[C@H]1O[C@@H](n2ccc(N)nc2=O)[C@](C)(N=[N+]=[N-])[C@@H]1O)Oc1ccccc1` (stereo partly shown) [Compound 30] gave an EC50 of 3.3 µM.
Molecule `CC(C)OC(=O)[C@H](C)NP(=O)(OC[C@H]1O[C@@H](n2ccc(=O)[nH]c2=O)[C@](C)(N=[N+]=[N-])[C@@H]1O)Oc1ccc(Cl)c(Cl)c1` (stereo partly shown) [Compound 92] has an EC50 of 7.6 µM.
`CCCCOC(=O)[C@H](C)NP(=O)(OC[C@H]1O[C@@H](n2ccc(=O)[nH]c2=O)[C@](C)(N=[N+]=[N-])[C@@H]1O)Oc1ccc(F)cc1` (stereo partly shown) [Compound 367] showed an EC50 of 3.3 µM.
For `C[C@@]1(N=[N+]=[N-])[C@@H]2OP(=O)(Oc3ccccc3)OC[C@H]2O[C@H]1n1ccc(N)nc1=O` (stereo partly shown) [Compound 65], the EC50 was 56 µM.
`CCOc1nc(N)nc2c1ncn2[C@@H]1O[C@H](COP(=O)(N[C@@H](C)C(=O)OC)Oc2ccc(F)cc2)[C@@H](O)[C@@]1(C)N=[N+]=[N-]` (stereo partly shown) [Compound 35] gave an EC50 of 1.6 µM.
For `C[C@@H](NP(=O)(OC[C@H]1O[C@@H](n2ccc(=O)[nH]c2=O)[C@](C)(N=[N+]=[N-])[C@@H]1O)Oc1ccccc1)C(=O)OCc1ccccc1` (stereo partly shown) [Compound 45], the EC50 was 5.6 µM.
`CCOC(=O)c1cccc(OP(=O)(N[C@@H](C)C(=O)OC)OC[C@H]2O[C@@H](n3cnc4c(OC)nc(N)nc43)[C@](C)(N=[N+]=[N-])[C@@H]2O)c1` (stereo partly shown) [Compound 221] was tested, and the EC50 was 0.8 µM.
`C[C@H](NP(=O)(OC[C@H]1O[C@@H](n2ccc(=O)[nH]c2=O)[C@](C)(N=[N+]=[N-])[C@@H]1O)Oc1ccccc1)C(=O)OCC(C)(C)C` (stereo partly shown) [Compound 16] was tested, and the EC50 was 1 µM.
For `CCOc1nc(N)nc2c1ncn2[C@@H]1O[C@@H]2COP(=O)(OC)O[C@H]2[C@@]1(C)N=[N+]=[N-]` (stereo partly shown) [Compound 25], the EC50 was 13 µM.
Work on `CC(C)OC(=O)[C@H](C)NP(=O)(OC[C@H]1O[C@@H](n2cnc3c(N4CCC4)nc(N)nc32)[C@](C)(N=[N+]=[N-])[C@@H]1O)Oc1ccccc1` (stereo partly shown) [Compound 392] yielded an EC50 of 5.6 µM.

Same assay, conditions: read-out: 1b EC50
In the case of `CCOC(=O)[C@H](C)NP(=O)(OC[C@H]1O[C@@H](n2cnc3c(OCC)nc(N)nc32)[C@](C)(N=[N+]=[N-])[C@@H]1O)Oc1ccccc1Cl` (single isomer, unassigned) [Compound 359], the EC50 is reported as 3.3 µM.
`C[C@H](NP(=O)(OC[C@H]1O[C@@H](n2ccc(=O)[nH]c2=O)[C@](C)(N=[N+]=[N-])[C@@H]1O)Oc1ccc2c(c1)OCO2)C(=O)OCc1ccccc1` (stereo partly shown) [Compound 306] showed an EC50 of 1.3 µM.
In the case of `COc1nc(N)nc2c1ncn2[C@@H]1O[C@H](COP(=O)(N[C@@H](C)C(=O)OC(C)C)Oc2ccccc2Cl)[C@@H](O)[C@@]1(C)N=[N+]=[N-]` (single isomer, unassigned) [Compound 281], the EC50 is reported as 12 µM.
Work on `CC(C)OC(=O)[C@H](C)NP(=O)(OC[C@H]1O[C@@H](n2ccc(N)nc2=O)[C@](C)(N=[N+]=[N-])[C@@H]1O)Oc1ccc2c(c1)OCO2` (single isomer, unassigned) [Compound 335] yielded an EC50 greater than 100 µM.
`CCOC(=O)[C@H](C)NP(=O)(OC[C@H]1O[C@@H](n2cnc3c(OC)nc(N)nc32)[C@](C)(N=[N+]=[N-])[C@@H]1O)Oc1ccc(Cl)cc1` (single isomer, unassigned) [Compound 289] showed an EC50 of 0.7 µM.
Molecule `COC(=O)[C@H](C)NP(=O)(OC[C@H]1O[C@@H](n2ccc(N)nc2=O)[C@](C)(N=[N+]=[N-])[C@@H]1O)Oc1ccccc1Cl` (single isomer, unassigned) [Compound 202] has an EC50 of 10 µM.
`CCOc1nc(N)nc2c1ncn2[C@@H]1O[C@H](COP(=O)(N[C@@H](C)C(=O)OC(C)C)Oc2ccc(Cl)c(Cl)c2)[C@@H](O)[C@@]1(C)N=[N+]=[N-]` (single isomer, unassigned) [Compound 361] was tested, and the EC50 was 11.2 µM.
In the case of `CC(C)OC(=O)[C@H](C)NP(=O)(OC[C@H]1O[C@@H](n2ccc(N)nc2=O)[C@](C)(N=[N+]=[N-])[C@@H]1O)Oc1ccccc1Cl` (single isomer, unassigned) [Compound 333], the EC50 is reported as 1.3 µM.
In the case of `C[C@H](NP(=O)(OC[C@H]1O[C@@H](n2ccc(N)nc2=O)[C@](C)(N=[N+]=[N-])[C@@H]1O)Oc1ccccc1)C(=O)OCc1ccccc1` (single isomer, unassigned) [Compound 192], the EC50 is reported as 19 µM.
Molecule `C[C@H](NP(=O)(OC[C@H]1O[C@@H](n2ccc(=O)[nH]c2=O)[C@](C)(N=[N+]=[N-])[C@@H]1O)Oc1ccccc1)C(=O)OCC(C)(C)C` (single isomer, unassigned) [Compound 154] has an EC50 of 0.7 µM.
`CCOc1nc(N)nc2c1ncn2[C@@H]1O[C@H](COP(=O)(N[C@@H](C)C(=O)OCC(C)C)Oc2ccccc2)[C@@H](O)[C@@]1(C)N=[N+]=[N-]` (stereo partly shown) [Compound 62] gave an EC50 of 0.8 µM.
`COC(=O)c1ccccc1OP(=O)(N[C@@H](C)C(=O)OC)OC[C@H]1O[C@@H](n2ccc(=O)[nH]c2=O)[C@](C)(N=[N+]=[N-])[C@@H]1O` (single isomer, unassigned) [Compound 228] gave an EC50 of 1.3 µM.
`CC(C)OC(=O)[C@H](C)NP(=O)(OC[C@H]1O[C@@H](n2ccc(N)nc2=O)[C@](C)(N=[N+]=[N-])[C@@H]1O)Oc1ccccc1Cl` (single isomer, unassigned) [Compound 332] gave an EC50 of 20 µM.
Work on `COc1nc(N)nc2c1ncn2[C@@H]1O[C@H](COP(=O)(N[C@@H](C)C(=O)OC(C)C)Oc2ccc(Cl)c(Cl)c2)[C@@H](O)[C@@]1(C)N=[N+]=[N-]` (single isomer, unassigned) [Compound 283] yielded an EC50 of 8.4 µM.
`CCCOC(=O)[C@H](C)NP(=O)(OC[C@H]1O[C@@H](n2cnc3c(OC)nc(N)nc32)[C@](C)(N=[N+]=[N-])C1O)Oc1ccccc1` (single isomer, unassigned) [Compound 288] showed an EC50 of 0.9 µM.
Work on `CCOc1nc(N)nc2c1ncn2[C@@H]1O[C@H](COP(=O)(N[C@@H](C)C(=O)OC(C)C)Oc2ccccc2)[C@@H](O)[C@@]1(C)N=[N+]=[N-]` (single isomer, unassigned) [Compound 165] yielded an EC50 of 6.2 µM.
Molecule `CCOc1nc(N)nc2c1ncn2[C@@H]1O[C@H](COP(=O)(N[C@@H](C)C(=O)OC)Oc2ccc(F)cc2)[C@@H](O)[C@@]1(C)N=[N+]=[N-]` (single isomer, unassigned) [Compound 174] has an EC50 of 0.5 µM.
In the case of `CCOC(=O)[C@H](C)NP(=O)(OC[C@H]1O[C@@H](n2cnc3c(OC)nc(N)nc32)[C@](C)(N=[N+]=[N-])[C@@H]1O)Oc1ccccc1` (stereo partly shown) [Compound 250], the EC50 is reported as 0.7 µM.
